Series [1] in a line: Safety / tolerability in the relative bioavailability study. It counts as in vivo, human. The settings on record: oral spray doses of 10 mg, 20 mg, 30 mg and single oral dose of 25 mg (1×25 mg tablet), healthy adult subjects, under fed conditions. Here is the method:
Assessments include evaluation of changes in orthostatic hypotension, oral irritation, vital sign assessments, 12-lead electrocardiogram (ECG), and clinical assessments.
After dosing, the following activities were completed: • Both objective and subjective oral irritation assessments were performed immediately after dosing and at one hour after dose administration. • A fast was maintained until at least four hours after dosing. During the study confinement period, fluid consumption resumed no sooner than one hour after dose administration. […]
• Blood sample collections were obtained as per the profile. • Supine and standing blood pressure and heart rate was measured at approximately 24 hours after each dose. • All subjects were evaluated for the presence of any adverse events prior to release from the study site. • Prior to release, subjects were evaluated to ensure it was safe for them to be released from the study site. • Subjects were released from the study site at approximately 24 hours after dose administration.

For series [2] the following is noted: cited from earlier work.

Molecules are shown by their SMILES. Structures can show the parent of a compound that is named as a salt.

Consider `CCCc1nn(C)c2c(=O)[nH]c(-c3cc(S(=O)(=O)N4CCN(C)CC4)ccc3OCC)nc12` [sildenafil citrate], for which the tolerability entry in series [1] was “well tolerated”.
Consider `CCCc1nn(C)c2c(=O)[nH]c(-c3cc(S(=O)(=O)N4CCN(C)CC4)ccc3OCC)nc12` [sildenafil, 1-[[3-(6,7-dihydro-1-methyl-7-oxo-3-propyl-1H-pyrazolo[4,3-d]pyrimidin-5-yl)-4-ethoxyphenyl]sulfonyl]-4-methylpiperazine], for which the absolute bioavailability in series [2] (after oral administration (tablet)) is 41%. Besides, the “mean steady state volume of distribution (Vss)” value in series [2] (in vivo) is listed as 105 L.

The values above are taken from patent US20130143894A1 (vadel Pharma Inc., priority 2010, published 2013).
